Key:
Type in all cases: in vivo
IL-1α = test: Serum IL-1α levels in mice treated with lethal dose of endotoxin; conditions: Table V; pretreatment (SOD 3.3 × 10^4 μ/kg, 30 minutes before endotoxin; Tβ4 100 μg/mice); blood collected 1 hr after endotoxin
From the text: (§1) The results presented in Tables III-V below show effects of Tβ4 respectively on mice cerebellar cGMP levels, blood serum TNF-α levels, and blood serum TNF-α and IL-1α levels.
(§2) Using the same methods and materials as in examples 1-3, the effect which Tβ4 has on blood levels of IL-1α, TNF-α, PAG, Txβ2 and 6-keto-PGF1 α, which are pathological mediators of endotoxin induced lethality, was studied.

cGMP = cGMP cerebellar levels in mice treated with lethal doses of endotoxin; conditions: endotoxin 60 mg/kg i.p. + Tβ4 0.8 mg/kg i.p.
From the text: as §1

TNF-α = test: Serum TNF-α levels in mice treated with lethal doses of endotoxin; conditions: for TNF-α (serum level): Table XIII, endotoxin 60 mg/kg + Tβ4 100 μg administered immediately after endotoxin
From the text: as §1, §2

endotoxic mice = test: Survival of Swiss Webster mice following lethal endotoxin dose and Tβ4; conditions: for Number of Mice Alive: Table II, 8 mice at 0 hr.
Description: Swiss-Webster mice 4-6 weeks of age (20-25 g) were housed 6 per cage. The mice were divided into 2 groups: endotoxic mice (endotoxin 60 mg/kg i.p. in acute treatment) and endotoxic mice treated with Tβ4, 5 minutes and 2, 4, 6, 8, 10, 12, 14, 16, 18, 20, 22, 24 hours post administration of the endotoxin. Survival was recorded 2 times a day for 7 days.
Swiss-Webster mice 4-6 weeks of age (20-25 g) were divided into groups as follows.
1. Mice treated with a lethal dose of endotoxin (60 mg/kg).
2. […]
3. […]
4. […]

Substance: Thymosin β4 [Tβ4]
- Serum IL-1α (IL-1α): 298 ± 20 pg/mL
- Cerebellar cortex cyclic GMP (cGMP): 12.1 ± 0.9 pmol per mg/protein
- Serum TNF-α (TNF-α; Table IV, endotoxin 60 mg/kg + Tβ4 100 μg, 1 hr): 823 ± 79 pg/mL
- Serum TNF-α (TNF-α; Table IV, endotoxin 60 mg/kg + Tβ4 100 μg, 3 hr): 535 ± 47 pg/mL
- Serum TNF-α (TNF-α; Table IV, endotoxin 60 mg/kg + Tβ4 100 μg, 5 hr): 480 ± 45 pg/mL
- Serum TNF-α (TNF-α; Table V, pretreatment (SOD 3.3 × 10^4 μ/kg, 30 minutes before endotoxin; Tβ4 100 μg/mice), blood collected 1 hr after endotoxin): 321 ± 26.2 pg/mL
- TNF-α (serum level) (TNF-α; 1 hr): 807 pg/mL
- TNF-α (serum level) (TNF-α; 3 hr): 591 pg/mL
- TNF-α (serum level) (TNF-α; 5 hr): 496 pg/mL
- protective activity on endotoxin lethality (in words) (endotoxic mice; 10 μg Tβ4): sometimes shown positive activity
- Survival (No. mice alive) (endotoxic mice; Table I, endotoxin 60 mg/kg + Tβ4 100 μg 1x, 24 hrs, 7 mice at 0 hrs): 4
- Survival (No. mice alive) (endotoxic mice; Table I, endotoxin 60 mg/kg + Tβ4 100 μg 1x, 48 hrs, 7 mice at 0 hrs): 3
- Survival (No. mice alive) (endotoxic mice; Table I, endotoxin 60 mg/kg + Tβ4 100 μg 1x, 72 hrs, 7 mice at 0 hrs): 3
- Survival (No. mice alive) (endotoxic mice; Table I, endotoxin 60 mg/kg + Tβ4 100 μg 2x, 24 hrs, 7 mice at 0 hrs): 4
- Survival (No. mice alive) (endotoxic mice; Table I, endotoxin 60 mg/kg + Tβ4 100 μg 2x, 48 hrs, 7 mice at 0 hrs): 4
- Survival (No. mice alive) (endotoxic mice; Table I, endotoxin 60 mg/kg + Tβ4 100 μg 2x, 72 hrs, 7 mice at 0 hrs): 4
- Survival (No. mice alive) (endotoxic mice; Table I, endotoxin 60 mg/kg + Tβ4 100 μg 3x, 24 hrs, 7 mice at 0 hrs): 7
- Survival (No. mice alive) (endotoxic mice; Table I, endotoxin 60 mg/kg + Tβ4 100 μg 3x, 48 hrs, 7 mice at 0 hrs): 7
- Survival (No. mice alive) (endotoxic mice; Table I, endotoxin 60 mg/kg + Tβ4 100 μg 3x, 72 hrs, 7 mice at 0 hrs): 7
- Number of Mice Alive (endotoxic mice; endotoxin 60 mg/kg + Tβ4 100 μg 3x, 24 hr.): 8
- Number of Mice Alive (endotoxic mice; endotoxin 60 mg/kg + Tβ4 100 μg 3x, 48 hr.): 8
- Number of Mice Alive (endotoxic mice; endotoxin 60 mg/kg + Tβ4 100 μg 3x, 72 hr.): 8
- Number of Mice Alive (endotoxic mice; endotoxin 60 mg/kg + Tβ4 100 μg 3x, 7 day): 8
- Number of Mice Alive (endotoxic mice; endotoxin 60 mg/kg + Tβ4 100 μg 3x, 14 day): 8
- Survival (No. mice alive) (endotoxic mice; Table VI, endotoxin 60 mg/kg + Tβ4 10 μg 3x, immediately following, 2 and 4 hrs after endotoxin, 24 hrs, 8 mice at 0 hrs): 8
- Survival (No. mice alive) (endotoxic mice; Table VI, endotoxin 60 mg/kg + Tβ4 10 μg 3x, immediately following, 2 and 4 hrs after endotoxin, 48 hrs, 8 mice at 0 hrs): 6
- Survival (No. mice alive) (endotoxic mice; Table VI, endotoxin 60 mg/kg + Tβ4 10 μg 3x, immediately following, 2 and 4 hrs after endotoxin, 72 hrs, 8 mice at 0 hrs): 6
- Survival (No. mice alive) (endotoxic mice; Table VI, endotoxin 60 mg/kg + Tβ4 10 μg 3x, immediately following, 2 and 4 hrs after endotoxin, 96 hrs, 8 mice at 0 hrs): 6
- Survival (No. mice alive) (endotoxic mice; Table VI, endotoxin 60 mg/kg + Tβ4 10 μg 3x, immediately following, 2 and 4 hrs after endotoxin, 120 hrs, 8 mice at 0 hrs): 6
- Survival (No. mice alive) (endotoxic mice; Table VI, endotoxin 60 mg/kg + Tβ4 100 μg 3x, 2, 4 and 6 hrs after endotoxin, 24 hrs, 8 mice at 0 hrs): 7
- Survival (No. mice alive) (endotoxic mice; Table VI, endotoxin 60 mg/kg + Tβ4 100 μg 3x, 2, 4 and 6 hrs after endotoxin, 48 hrs, 8 mice at 0 hrs): 4
- Survival (No. mice alive) (endotoxic mice; Table VI, endotoxin 60 mg/kg + Tβ4 100 μg 3x, 2, 4 and 6 hrs after endotoxin, 72 hrs, 8 mice at 0 hrs): 4
- Survival (No. mice alive) (endotoxic mice; Table VI, endotoxin 60 mg/kg + Tβ4 100 μg 3x, 2, 4 and 6 hrs after endotoxin, 96 hrs, 8 mice at 0 hrs): 4
- Survival (No. mice alive) (endotoxic mice; Table VI, endotoxin 60 mg/kg + Tβ4 100 μg 3x, 2, 4 and 6 hrs after endotoxin, 120 hrs, 8 mice at 0 hrs): 4
- Survival (No. mice alive) (endotoxic mice; Table VI, endotoxin 60 mg/kg + Tβ4 100 μg 3x, immediately following, 2 and 4 hrs after endotoxin, 24 hrs, 8 mice at 0 hrs): 8
- Survival (No. mice alive) (endotoxic mice; Table VI, endotoxin 60 mg/kg + Tβ4 100 μg 3x, immediately following, 2 and 4 hrs after endotoxin, 48 hrs, 8 mice at 0 hrs): 8
- Survival (No. mice alive) (endotoxic mice; Table VI, endotoxin 60 mg/kg + Tβ4 100 μg 3x, immediately following, 2 and 4 hrs after endotoxin, 72 hrs, 8 mice at 0 hrs): 8
- Survival (No. mice alive) (endotoxic mice; Table VI, endotoxin 60 mg/kg + Tβ4 100 μg 3x, immediately following, 2 and 4 hrs after endotoxin, 96 hrs, 8 mice at 0 hrs): 8
- Survival (No. mice alive) (endotoxic mice; Table VI, endotoxin 60 mg/kg + Tβ4 100 μg 3x, immediately following, 2 and 4 hrs after endotoxin, 120 hrs, 8 mice at 0 hrs): 8
- Survival (No. mice alive) (endotoxic mice; Table VII, endotoxin 60 mg/kg + Tβ4 10 μg 3x i.p., immediately following, 2 and 4 hrs after endotoxin, 24 hrs, 10 mice at 0 hrs): 3
- Survival (No. mice alive) (endotoxic mice; Table VII, endotoxin 60 mg/kg + Tβ4 10 μg 3x i.p., immediately following, 2 and 4 hrs after endotoxin, 48 hrs, 10 mice at 0 hrs): 3
- Survival (No. mice alive) (endotoxic mice; Table VII, endotoxin 60 mg/kg + Tβ4 10 μg 3x i.p., immediately following, 2 and 4 hrs after endotoxin, 72 hrs, 10 mice at 0 hrs): 3
- Survival (No. mice alive) (endotoxic mice; Table VII, endotoxin 60 mg/kg + Tβ4 10 μg 3x i.p., immediately following, 2 and 4 hrs after endotoxin, 96 hrs, 10 mice at 0 hrs): 3
- Survival (No. mice alive) (endotoxic mice; Table VII, endotoxin 60 mg/kg + Tβ4 10 μg 3x i.p., immediately following, 2 and 4 hrs after endotoxin, 5 days, 10 mice at 0 hrs): 3
- Survival (No. mice alive) (endotoxic mice; Table VII, endotoxin 60 mg/kg + Tβ4 10 μg 3x i.p., immediately following, 2 and 4 hrs after endotoxin, 6 days, 10 mice at 0 hrs): 3
- Survival (No. mice alive) (endotoxic mice; Table VII, endotoxin 60 mg/kg + Tβ4 20 μg 3x i.p., immediately following, 2 and 4 hrs after endotoxin, 24 hrs, 10 mice at 0 hrs): 5
- Survival (No. mice alive) (endotoxic mice; Table VII, endotoxin 60 mg/kg + Tβ4 20 μg 3x i.p., immediately following, 2 and 4 hrs after endotoxin, 48 hrs, 10 mice at 0 hrs): 4
